Laboratory results: US9718796B2, “Substituted benzoazepines as toll-like receptor modulators” (VENTIRX PHARMACEUTICALS, INC., priority 2011, dated 2017)
Where two headings read alike, the source gives them in different places.

Target: T1, hTLR8 (Homo sapiens, UniProt Q9NR97)
T1 construct: host or cells: HEK293 cells stably transfected with hTLR8
T1 sequence (Q9NR97 27-1041): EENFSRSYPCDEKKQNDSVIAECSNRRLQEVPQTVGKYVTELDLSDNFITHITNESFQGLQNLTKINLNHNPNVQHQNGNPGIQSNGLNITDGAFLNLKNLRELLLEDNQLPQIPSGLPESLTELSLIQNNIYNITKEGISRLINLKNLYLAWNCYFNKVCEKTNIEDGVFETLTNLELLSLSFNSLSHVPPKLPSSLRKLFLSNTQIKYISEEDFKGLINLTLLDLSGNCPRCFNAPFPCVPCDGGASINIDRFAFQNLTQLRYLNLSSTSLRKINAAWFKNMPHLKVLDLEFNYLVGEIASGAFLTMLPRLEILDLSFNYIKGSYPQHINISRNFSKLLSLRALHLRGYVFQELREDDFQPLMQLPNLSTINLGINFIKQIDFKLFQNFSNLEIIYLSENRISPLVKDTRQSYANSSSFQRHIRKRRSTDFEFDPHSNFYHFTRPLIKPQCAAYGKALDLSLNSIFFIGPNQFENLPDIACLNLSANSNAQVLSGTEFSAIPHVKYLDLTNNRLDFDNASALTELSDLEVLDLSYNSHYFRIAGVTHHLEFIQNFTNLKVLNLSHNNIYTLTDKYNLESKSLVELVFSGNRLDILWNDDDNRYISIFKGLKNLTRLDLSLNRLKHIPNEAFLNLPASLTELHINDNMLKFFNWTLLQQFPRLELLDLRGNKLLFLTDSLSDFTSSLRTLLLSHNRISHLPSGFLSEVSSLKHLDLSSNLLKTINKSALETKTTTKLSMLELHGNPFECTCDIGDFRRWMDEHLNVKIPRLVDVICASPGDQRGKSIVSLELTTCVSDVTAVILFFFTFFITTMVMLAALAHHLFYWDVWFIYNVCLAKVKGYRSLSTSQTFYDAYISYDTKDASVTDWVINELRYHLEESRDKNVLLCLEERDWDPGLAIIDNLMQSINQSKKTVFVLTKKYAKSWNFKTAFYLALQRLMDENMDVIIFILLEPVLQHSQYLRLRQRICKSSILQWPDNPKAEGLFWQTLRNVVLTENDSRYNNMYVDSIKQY
Experiment: HEK-293 hTLR8 transfectant antagonist assay (NF-κB driven SEAP reporter)
Format: cell-based
Conditions: hTLR8 reporter cells
Protocol: The HEK-293 hTLR transfectant assay employs HEK293 cells stably transfected with various hTLRs and transiently co-transfected with a plasmid containing an NF-κB driven secreted embryonic alkaline phosphate (SEAP) reporter gene. Stimulation of TLRs activates their downstream signaling pathways and induces nuclear translocation of the transcription factor NF-κB. Reporter gene activity is then measured using a spectrophotometric assay. To measure antagonist activity, human embryonic kidney (HEK) cells (e.g., 293XL-hTLR8 cells available from InvivoGen, San Diego, Calif.) are prepared according to supplier's instructions and incubated with various concentrations of test compound overnight. The amount of induced […] is measured by reading the absorbance at 650 nm. The compounds of the invention have an MC50 of 25 μM or less, wherein MC50 is defined as the concentration at which 50% of maximum induction is seen. For the TLR8 antagonist assays, cells are transiently transfected with the reporter gene on Day 1 per the supplier's instructions. Antagonist compounds are added to the cultures on Day 2 followed by addition of a TLR8 agonist approximately 2 hours later. Cultures are incubated overnight and SEAP activity is measured on Day 3. In a typical assay, 50,000 HEK239 hTLR8 cells are seeded per culture well and transiently transfected with the SEAP reporter gene. Antagonists are added to cultures in culture medium and […] DMSO over a concentration range of 0.1 nanomolar to 10 micromolar. TLR8 agonists are added to cultures 2 hours later at a fixed concentration (e.g., 1 micromolar or 10 micromolar of Compound A) and cultures are then incubated for 16-24 hrs at 37° C. in a humidified CO incubator. Antagonists are also evaluated for activity in the absence of agonist. TLR8 antagonist activity was measured in a hTLR8 assay format, measuring IC50 values. […] IC50s were then calculated.

[1] = IC50, nM, vs. VTX-378 1 μM, TLR8 agonist VTX-378 (Compound A) 1 μM
[2] = IC50, nM, vs. VTX-378 10 μM, TLR8 agonist VTX-378 (Compound A) 10 μM
[3] = TLR8 agonist VTX-378 (Compound A) 0.5 μM, read-out: IC50, nM, vs. VTX-378 0.5 μM
[4] = IC50, nM, vs. 3M002 10 μM, agonist 3M002 10 μM
[5] = IC50, nM, vs. 3M002 1 μM, agonist 3M002 1 μM

## CCOC(=O)C1=Cc2cc(-c3ccc(C(=O)N4CCCC4)cc3)ccc2N=C(NOC)C1 [Compound 2930]
[1]
  IC50: ≥ 10000 nM
[2]
  IC50: ≥ 10000 nM

## CCOC(=O)C1=Cc2cc(-c3ccc(C(=O)N(C)C)cc3)ccc2N=C(N)C1 [Compound 2937, Ethyl 2-amino-7-[4-(dimethylcarbamoyl)phenyl]-3H-1-benzazepine-4-carboxylate]
[1]
  IC50: < 1000 nM
[2]
  IC50: ≥ 10000 nM

## CCOC(=O)C1=Cc2cc(Oc3ccccc3)ccc2N=C(N)C1 [Compound 2946]
[1]
  IC50: 1000 to 10000 nM
[2]
  IC50: ≥ 10000 nM

## CCOC(=O)C1=Cc2cc(-c3ccc(C(=O)N4CCCC4)cc3)ccc2N=C(NCCO)C1 [Compound 2968]
[1]
  IC50: 1000 to 10000 nM
[2]
  IC50: ≥ 10000 nM
[3]
  IC50: 1000 to 10000 nM

## CC(C)NC(=O)C1=Cc2cc(-c3ccc(C(=O)N4CCCC4)cc3)ccc2N=C(N)C1 [Compound 3009, 2-Amino-N-isopropyl-7-[4-(pyrrolidin-1-ylcarbonyl)phenyl]-3H-1-benzazepine-4-carboxamide]
[1]
  IC50: 1000 to 10000 nM
[2]
  IC50: ≥ 10000 nM

## CCOC(=O)C1=Cc2cc(Oc3cccc(C(F)(F)F)c3)ccc2N=C(N)C1 [Compound 3046]
[4]
  IC50: 1000 to 10000 nM
[1]
  IC50: 1000 to 10000 nM
[2]
  IC50: ≥ 10000 nM

## CCOC(=O)C1=Cc2cc(-c3ccc(S(=O)(=O)N(C)C)cc3)ccc2N=C(N)C1 [Compound 3055, Ethyl 2-amino-7-{4-[(dimethylamino)sulfonyl]phenyl}-3H-1-benzazepine-4-carboxylate]
[1]
  IC50: 1000 to 10000 nM
[2]
  IC50: ≥ 10000 nM

## CCOC(=O)C1=Cc2cc(-c3cccc(C(=O)N(C)C)c3)ccc2N=C(N)C1 [Compound 3058, Ethyl 2-amino-7-[3-(dimethylcarbamoyl)phenyl]-3H-1-benzazepine-4-carboxylate]
[1]
  IC50: 1000 to 10000 nM
[2]
  IC50: ≥ 10000 nM

## CCOC(=O)C1=Cc2cc(-c3cccc(C(F)(F)F)c3)ccc2N=C(N)C1 [Compound 3059, Ethyl 2-amino-7-[3-(trifluoromethyl)phenyl]-3H-1-benzazepine-4-carboxylate]
[4]
  IC50: ≥ 10000 nM
[1]
  IC50: 1000 to 10000 nM
[2]
  IC50: ≥ 10000 nM

## CCOC(=O)C1=Cc2cc(Oc3ccc(C(=O)N(C)C)cc3)ccc2N=C(N)C1 [Compound 3093]
[4]
  IC50: ≥ 10000 nM
[1]
  IC50: ≥ 10000 nM
[2]
  IC50: ≥ 10000 nM

## CCOC(=O)C1=Cc2cc(-c3ccccc3C)ccc2N=C(N)C1 [Compound 3096, Ethyl 2-amino-7-(2-methylphenyl)-3H-1-benzazepine-4-carboxylate]
[1]
  IC50: 1000 to 10000 nM
[2]
  IC50: ≥ 10000 nM

## CCOC(=O)C1=Cc2cc(Nc3ccccc3)ccc2N=C(N)C1 [Compound 3097]
[4]
  IC50: 1000 to 10000 nM
[1]
  IC50: 1000 to 10000 nM
[3]
  IC50: < 1000 nM

## CCOC(=O)C1=Cc2cc(-c3ccc(OC)cc3)ccc2N=C(N)C1 [Compound 3098, Ethyl 2-amino-7-(4-methoxyphenyl)-3H-1-benzazepine-4-carboxylate]
[4]
  IC50: 1000 to 10000 nM
[1]
  IC50: ≥ 10000 nM
[3]
  IC50: 1000 to 10000 nM

## CCOC(=O)C1=Cc2cc(-c3ccc(C(=O)OCC)cc3)ccc2N=C(N)C1 [Compound 3101, Ethyl 2-amino-7-[4-(ethoxycarbonyl)phenyl]-3H-1-benzazepine-4-carboxylate]
[4]
  IC50: ≥ 10000 nM
[1]
  IC50: ≥ 10000 nM
[3]
  IC50: 1000 to 10000 nM

## CCOC(=O)C1=Cc2cc(-c3ccc(C(=O)N4CCCC4)cc3C)ccc2N=C(N)C1 [Compound 3119, Ethyl 2-amino-7-[2-methyl-4-(pyrrolidin-1-ylcarbonyl)phenyl]-3H-1-benzazepine-4-carboxylate]
[4]
  IC50: < 1000 nM
[1]
  IC50: < 1000 nM
[3]
  IC50: < 1000 nM

## CCOC(=O)C1=Cc2cc(Oc3ccc(OC)cc3)ccc2N=C(N)C1 [Compound 3125]
[5]
  IC50: 1000 to 10000 nM
[4]
  IC50: ≥ 10000 nM
[1]
  IC50: 1000 to 10000 nM
[3]
  IC50: 1000 to 10000 nM

## CCOC(=O)C1=Cc2cc(-c3ccccc3C(F)(F)F)ccc2N=C(N)C1 [Compound 3126, Ethyl 2-amino-7-[2-(trifluoromethyl)phenyl]-3H-1-benzazepine-4-carboxylate]
[5]
  IC50: < 1000 nM
[4]
  IC50: 1000 to 10000 nM
[1]
  IC50: 1000 to 10000 nM
[3]
  IC50: < 1000 nM

## CCOC(=O)C1=Cc2cc(-c3ccccc3Cl)ccc2N=C(N)C1 [Compound 3127, Ethyl 2-amino-7-(2-chlorophenyl)-3H-1-benzazepine-4-carboxylate]
[5]
  IC50: < 1000 nM
[4]
  IC50: 1000 to 10000 nM
[1]
  IC50: < 1000 nM
[3]
  IC50: < 1000 nM

## CCOC(=O)C1=Cc2cc(Oc3ccccc3C)ccc2N=C(N)C1 [Compound 3128]
[5]
  IC50: < 1000 nM
[4]
  IC50: 1000 to 10000 nM
[1]
  IC50: 1000 to 10000 nM
[3]
  IC50: < 1000 nM

## CCOC(=O)C1=Cc2cc(-c3ccccc3C(C)C)ccc2N=C(N)C1 [Compound 3141, Ethyl 2-amino-7-(2-isopropylphenyl)-3H-1-benzazepine-4-carboxylate]
[1]
  IC50: 1000 to 10000 nM
[3]
  IC50: < 1000 nM

## CCOC(=O)C1=Cc2cc(-c3cccc(Cl)c3Cl)ccc2N=C(N)C1 [Compound 3155, Ethyl 2-amino-7-(2,3-dichlorophenyl)-3H-1-benzazepine-4-carboxylate]
[1]
  IC50: ≥ 10000 nM
[3]
  IC50: 1000 to 10000 nM

## CCOC(=O)C1=Cc2cc(-c3c(C)cccc3C)ccc2N=C(N)C1 [Compound 3162]
[1]
  IC50: 1000 to 10000 nM
[3]
  IC50: 1000 to 10000 nM

## CCOC(=O)C1=Cc2cc(-c3ccc(N4CCCC4=O)cc3)ccc2N=C(N)C1 [Compound 3190, Ethyl 2-amino-7-[4-(2-oxopyrrolidin-1-yl)phenyl]-3H-1-benzazepine-4-carboxylate]
[1]
  IC50: 1000 to 10000 nM
[3]
  IC50: < 1000 nM

## CCOC(=O)C1=Cc2cc(C(=O)OC(C)C)ccc2N=C(N)C1 [Compound 3197]
[1]
  IC50: 1000 to 10000 nM
[2]
  IC50: 1000 to 10000 nM

## CCOC(=O)Nc1ccc(-c2ccc3c(c2)C=C(C(=O)OCC)CC(N)=N3)cc1 [Compound 3199, Ethyl 2-amino-7-{4-[(ethoxycarbonyl)amino]phenyl}-3H-1-benzazepine-4-carboxylate]
[1]
  IC50: < 1000 nM
[3]
  IC50: < 1000 nM

## CCOC(=O)C1=Cc2cc(C3=CCN(C(=O)OCC)CC3)ccc2N=C(N)C1 [Compound 3202]
[1]
  IC50: < 1000 nM
[2]
  IC50: < 1000 nM

## CCOC(=O)C1=Cc2cc(C3=CCN(C(=O)N4CCCC4)CC3)ccc2N=C(N)C1 [Compound 3254]
[1]
  IC50: 1000 to 10000 nM
[3]
  IC50: 1000 to 10000 nM

## CCOC(=O)C1=Cc2cc(-c3ccccc3OC)ccc2N=C(N)C1 [Compound 3264, Ethyl 2-amino-7-(2-methoxyphenyl)-3H-1-benzazepine-4-carboxylate]
[4]
  IC50: < 1000 nM
[1]
  IC50: < 1000 nM
[3]
  IC50: < 1000 nM

## CCOC(=O)C1=Cc2cc(-c3cccc(OC)c3)ccc2N=C(N)C1 [Compound 3267, Ethyl 2-amino-7-(3-methoxyphenyl)-3H-1-benzazepine-4-carboxylate]
[4]
  IC50: 1000 to 10000 nM
[1]
  IC50: 1000 to 10000 nM
[3]
  IC50: 1000 to 10000 nM

## CCOC(=O)C1=Cc2cc(-c3ccc(C)cc3)ccc2N=C(N)C1 [Compound 3272, Ethyl 2-amino-7-(4-methylphenyl)-3H-1-benzazepine-4-carboxylate]
[5]
  IC50: < 1000 nM
[4]
  IC50: 1000 to 10000 nM
[1]
  IC50: 1000 to 10000 nM
[3]
  IC50: 1000 to 10000 nM
